The melting point is the temperature of the solid-liquid transition.

The results in this text go back to patent publication US6579881B2 (Eisai Co., Ltd., priority 1997, dated 2003).

For one series, the target named is T1, serotonin 1A receptor (Rattus norvegicus, UniProt P19327).
T1 construct: To the receptor fraction of the hippocampus were added a test compound and 0.5 nM of [^3H]; 8-hydroxy-dipropylaminotetralin; from tissue; host or cells: SD rat hippocampus, membrane (receptor) fraction
T1 sequence (P19327 1-422): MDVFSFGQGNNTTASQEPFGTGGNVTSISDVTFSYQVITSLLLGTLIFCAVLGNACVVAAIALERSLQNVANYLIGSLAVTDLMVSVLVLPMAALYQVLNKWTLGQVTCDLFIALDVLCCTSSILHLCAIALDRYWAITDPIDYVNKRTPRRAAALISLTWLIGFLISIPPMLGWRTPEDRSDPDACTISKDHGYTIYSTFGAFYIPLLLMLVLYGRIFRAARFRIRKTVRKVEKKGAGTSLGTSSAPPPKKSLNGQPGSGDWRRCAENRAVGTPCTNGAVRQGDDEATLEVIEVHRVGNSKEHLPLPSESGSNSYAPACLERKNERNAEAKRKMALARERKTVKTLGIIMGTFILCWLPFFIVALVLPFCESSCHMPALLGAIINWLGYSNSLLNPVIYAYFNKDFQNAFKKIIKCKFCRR
Description: Binding test on [3H] 8-hydroxy-dipropylaminotetralin (serotonin 1A receptor). The conditions noted are these: [3H] 8-OH-DPAT 0.5 nM, receptor fraction of rat hippocampus; read-out: 5HT1a.

A further series concerns the target serotonin 2 receptor (Rattus norvegicus, UniProt P14842). As to the kind of experiment: Binding test on [3H] ketanserin (serotonin 2 receptor). The conditions noted are these: [3H] ketanserin 0.3 nM, receptor fraction of rat cerebral cortex; read-out: 5HT2.
For the next series, the target named is α1 adrenalin receptor. As to the kind of experiment: Binding test on [3H] prazosin (α1 adrenalin receptor). Set-up: species or system rat. The conditions noted are these: [3H] prazosin about 0.2 nM, receptor fraction of rat cerebral cortex.

SMILES strings stand for the structures.

serotonin 2 receptor, sequence (P14842 whole entry): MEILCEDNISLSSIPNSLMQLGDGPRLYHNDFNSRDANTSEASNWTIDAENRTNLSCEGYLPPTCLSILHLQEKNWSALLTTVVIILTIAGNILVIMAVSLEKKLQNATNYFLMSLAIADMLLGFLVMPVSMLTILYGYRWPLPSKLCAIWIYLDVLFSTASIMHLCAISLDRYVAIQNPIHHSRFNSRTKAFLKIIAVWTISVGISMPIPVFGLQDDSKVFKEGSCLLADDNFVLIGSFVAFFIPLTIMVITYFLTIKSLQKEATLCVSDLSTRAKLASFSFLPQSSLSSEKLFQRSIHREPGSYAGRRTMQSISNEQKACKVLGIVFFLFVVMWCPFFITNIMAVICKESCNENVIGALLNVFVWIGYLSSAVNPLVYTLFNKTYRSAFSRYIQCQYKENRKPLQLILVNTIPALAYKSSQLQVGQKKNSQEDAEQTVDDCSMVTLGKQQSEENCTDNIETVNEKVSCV
Description for α1 adrenalin receptor: Methysergide maleate was dissolved in distilled water before using.
Use was made of SD rats aged 6 to 8 weeks.
The rats were sacrificed by dcapitation to extirpate the cerebra.
The hippocampus was mixed with 50 times (on the wet weight basis) as much a 0.32 M sucrose solution while the cortex was mixed with 10 times as much the same solution. Each mixture was homogenized by using a Teflon glass homogenizer and centrifuged at 1,000×g for 10 min. The supernatant thus obtained was further centrifuged at 20,000×g for 20 min. The obtained precipitate was re-suspended in 50 times (based on the intial wet weight; in the case of the hippocampus) or 10 times (in the case of the cortex) as much a 50 mM Tris hydrochloride (pH 7.4) and incubated at room temperature for 30 min. After centrifuging at 20,000×g for 20 min, the obtained precipitate was further suspended and centrifuged twice each in the same manner. The precipitate thus obtained was suspended in 100 times (based on the initial wet weight; in the case of the hippocampus) or 20 times (in the case of the cortex) as much a 50 mM Tris hydrochloride solution (pH 7.4) to thereby give a receptor fraction. This receptor fraction was stored at −80° C. until using.
(Binding Test on [^3H] Prazosin)
Next, it was filtered through a glass filter with the use of a cell harvester. After washing the glass filter with 50 mM Tris hydrochloride (pH 7.4), the radioactivity of the receptor was measured with a liquid scintillation counter. The binding detected in the presence of 10 μM of phentolamine was referred to as the nonspecific binding.
Subsequently, the abilities of typical examples of the compounds of the present invention to bind to the α1 adrenalin receptor were evaluated by the test method described above.

For `O=C(CO)NCc1ccc2ccn(C3CCN(CCc4ccc(F)cc4)CC3)c2c1` [Example 364, 1-[1-(4-fluorophenethyl)piperidin-4-yl]-6-hydroxyacetamidomethylindole], the melting point was 76 to 78 °C. The Ki at serotonin 1A receptor is 1.73 nM. In addition, the Ki on serotonin 2 receptor was 4.23 nM. For the same compound, the Ki on α1 adrenalin receptor was 289 nM.

Compound `CS(=O)(=O)Oc1ccc2ccn(C3CCN(CCc4ccc(F)cc4)CC3)c2c1` [Example 336, 1-[1-(4-fluorophenethyl)piperidin-4-yl]-6-methanesulfonyloxyindole] yielded a melting point of 213 to 215 °C. Moreover, the Ki on serotonin 1A receptor was less than 0.2 nM. The Ki on serotonin 2 receptor was more than 20 nM. This compound also showed a Ki at α1 adrenalin receptor of 53.7 nM.

Compound `CCCNC(=O)Cc1ccc2ccn(C3CCN(CCc4ccc(F)cc4)CC3)c2c1` [Example 297, 1-[1-(4-fluorophenethyl)piperidin-4-yl]-6-(n-propylcarbamoylmethyl)indole] gave a melting point of 131.1 to 131.9 °C. The Ki on serotonin 1A receptor was 0.98 nM. In addition, the Ki on serotonin 2 receptor came out at 4.17 nM. Besides, on α1 adrenalin receptor, the Ki came to 226 nM.

`O=C(Cc1ccc2ccn(C3CCN(CCc4ccc(F)cc4)CC3)c2c1)NCC1OCCO1` [Example 347, 1-[1-(4-fluorophenethyl)piperidin-4-yl]-6-(1,3-dioxolan-2-ylmethyl)carbamoylmethylindole] showed a melting point of 173.8 to 174.6 °C. Moreover, the Ki on serotonin 1A receptor came to 2.24 nM. On serotonin 2 receptor, the Ki stood at 0.65 nM. The same compound returned a Ki at α1 adrenalin receptor of 44.3 nM.

For `O=C(Cc1ccc2ccn(C3CCN(CCc4ccc(F)cc4)CC3)c2c1)NCCO` [Example 300, 1-[1-(4-fluorophenethyl)piperidin-4-yl]-6-(2-hydroxyethyl)carbamoylmethylindole], the melting point was in the range of 140 to 141.2 °C. The Ki on serotonin 1A receptor came out at 1.73 nM. For the same compound, the Ki on serotonin 2 receptor came out at 3.55 nM. The Ki at α1 adrenalin receptor was found to be 225 nM.

Regarding `O=C(CCCl)NCc1ccc2ccn(C3CCN(CCc4ccc(F)cc4)CC3)c2c1` [Example 367, 1-[1-(4-fluorophenethyl)piperidin-4-yl]-6-(3-chloropropionylamino)methylindole], the melting point was in the range of 121 to 122 °C. The Ki at serotonin 1A receptor was found to be 1.63 nM. At serotonin 2 receptor, the Ki amounted to 1.76 nM. Moreover, the Ki at α1 adrenalin receptor is 45.8 nM.

Regarding `CCNC(=O)Cc1ccc2ccn(C3CCN(CCc4ccccc4F)CC3)c2c1` [Example 344, 1-[1-(2-fluorophenethyl)piperidin-4-yl]-6-ethylcarbamoylmethylindole], the melting point is 147 to 148.6 °C. At serotonin 1A receptor, the Ki was 1.78 nM. In addition, the Ki on serotonin 2 receptor came to 1.64 nM. This compound gave a Ki on α1 adrenalin receptor of 74.9 nM.

In the case of `CS(=O)(=O)NCc1ccc2ccn(C3CCN(CCc4ccc(F)cc4)CC3)c2c1` [Example 322, 1-[1-(4-fluorophenethyl)piperidin-4-yl]-6-methanesulfonamidomethylindole], the melting point fell in the range of 121 to 122 °C. The Ki on serotonin 1A receptor came out at 0.08 nM. Further, the Ki on serotonin 2 receptor was found to be 30.4 nM. The same compound came in with a Ki at α1 adrenalin receptor of 41.3 nM.

Turning to `O=C(Cc1ccc2ccn(C3CCN(CCc4ccccc4F)CC3)c2c1)NCCO` [Example 346, 1-[1-(2-fluorophenethyl)piperidin-4-yl]-6-(2-hydroxyethyl)carbamoylmethylindole], the melting point fell in the range of 127.7 to 128.6 °C. Moreover, the Ki at serotonin 1A receptor came to 13.5 nM. Besides, on serotonin 2 receptor, the Ki was found to be 1.49 nM. This compound came in with a Ki on α1 adrenalin receptor of 116 nM.

The compound `CN(C)C(=O)Cc1ccc2ccn(C3CCN(CCc4ccc(F)cc4)CC3)c2c1.O=C(O)C(=O)O` [Example 301, 1-[1-(4-fluorophenethyl)piperidin-4-yl]-6-dimethylcarbamoylmethylindole Oxalate] yielded a melting point of 170.1 to 170.6 °C. Besides, the Ki on serotonin 1A receptor is 0.8 nM. Moreover, the Ki on serotonin 2 receptor is 21.9 nM. Also, at α1 adrenalin receptor, the Ki was determined as 66.9 nM.

The compound `O=C(Cc1ccc2ccn(C3CCN(CCc4ccc(F)cc4)CC3)c2c1)NCCF` [Example 310, 1-[1-(4-fluorophenethyl)piperidin-4-yl]-6-(2-fluoroethyl)carbamoylmethylindole] registered a melting point of 163.3 to 163.8 °C. For the same compound, the Ki on serotonin 1A receptor amounted to 1.34 nM. Also, the Ki on serotonin 2 receptor was 2.29 nM. Moreover, on α1 adrenalin receptor, the Ki was 84.4 nM.

`NC(=O)Cc1ccc2ccn(C3CCN(CCc4ccc(F)cc4)CC3)c2c1` [Example 305, 1-[1-(4-fluorophenethyl)piperidin-4-yl]-6-carbamoylmethylindole] had a melting point of 159.1 to 160.8 °C. Besides, the Ki at serotonin 1A receptor was 0.06 nM. Also, at serotonin 2 receptor, the Ki is 3.29 nM. Moreover, the Ki on α1 adrenalin receptor was 35.9 nM.

In the case of `O=S(=O)(CCCCl)NCc1ccc2ccn(C3CCN(CCc4ccc(F)cc4)CC3)c2c1` [Example 325, 1-[1-(4-fluorophenethyl)piperidin-4-yl]-6-(3-chloropropyl)sulfonamidomethylindole], the melting point was in the range of 143 to 145 °C. For the same compound, the Ki on serotonin 1A receptor was determined as 0.65 nM. Further, the Ki at serotonin 2 receptor was found to be 10.9 nM. Also, the Ki on α1 adrenalin receptor stood at 47 nM.

In the case of `NC(=O)Cc1ccc2ccn(C3CCN(CCc4ccc(F)cc4F)CC3)c2c1` [Example 299, 1-[1-(2,4-difluorophenethyl)piperidin-4-yl]-6-carbamoylmethylindole], the melting point was 156.9 to 157.8 °C. For the same compound, at serotonin 1A receptor, the Ki is 0.11 nM. In addition, the Ki on serotonin 2 receptor was found to be 2.54 nM.

The compound `O=C(NCc1ccc2ccn(C3CCN(CCc4ccc(F)cc4)CC3)c2c1)C1CC1` [Example 363, 1-[1-(4-fluorophenethyl)piperidin-4-yl]-6-cyclopropanecarboxamidomethylindole] displayed a melting point of 116 to 117 °C. The Ki on serotonin 1A receptor amounted to 1.5 nM. The Ki on serotonin 2 receptor is 3.39 nM. On α1 adrenalin receptor, this compound registered a Ki of 106 nM.

Take `CC(=O)Nc1ccc2ccn(C3CCN(CCc4ccc(F)cc4)CC3)c2c1` [Example 339, 1-[1-(4-fluorophenethyl)piperidin-4-yl]-6-acetamidoindole]: the melting point was in the range of 195 to 196 °C. The Ki at serotonin 1A receptor was less than 0.2 nM. Moreover, the Ki at serotonin 2 receptor was more than 20 nM. Besides, the Ki on α1 adrenalin receptor was determined as 31.7 nM.

In the case of `O=C(Cc1ccc2ccn(C3CCN(CCc4ccc(F)cc4)CC3)c2c1)NC(CO)CO.O=C(O)C(=O)O` [Example 304, 1-[1-(4-fluorophenethyl)piperidin-4-yl]-6-(1,3-dihydroxypropan-2-yl)carbamoylmethylindole Oxalate], the melting point was 213.1 to 214.5 °C (dec.). At serotonin 1A receptor, the Ki turned out to be 8.37 nM. The Ki at serotonin 2 receptor was determined as 6.26 nM. The compound also displayed a Ki at α1 adrenalin receptor of 141 nM.

As for `O=C(CCO)NCc1ccc2ccn(C3CCN(CCc4ccccc4F)CC3)c2c1` [Example 382, 1-[1-(2-fluorophenethyl)piperidin-4-yl]-6-(3-hydroxypropionylamino)methylindole], the melting point was 58 to 59 °C. The Ki on serotonin 1A receptor turned out to be 7.59 nM. The Ki at serotonin 2 receptor came out at 3.31 nM. Moreover, the Ki at α1 adrenalin receptor was found to be 163 nM.

Consider `CC(=O)NCc1ccc2ccn(C3CCN(CCc4ccccc4F)CC3)c2c1` [Example 352, 1-[1-(2-fluorophenethyl)piperidin-4-yl]-6-acetamidomethylindole], for which the melting point lay in the range of 101 to 102 °C. Further, at serotonin 1A receptor, the Ki is 1.58 nM. For the same compound, the Ki at serotonin 2 receptor was 0.75 nM. At α1 adrenalin receptor, the Ki came to 96.7 nM.

For the compound `CNC(=O)NCc1ccc2ccn(C3CCN(CCc4ccc(F)cc4)CC3)c2c1` [Example 397, 1-[1-(4-fluorophenethyl)piperidin-4-yl]-6-(3-methylureido)methylindole], the melting point was 192 °C (dec.). In addition, on serotonin 1A receptor, the Ki is 1.28 nM. For the same compound, the Ki at serotonin 2 receptor is 2.27 nM. Besides, on α1 adrenalin receptor, the Ki is 27.1 nM.

On to `CC(C)NC(=O)Cc1ccc2ccn(C3CCN(CCc4ccc(F)cc4)CC3)c2c1` [Example 286, 1-[1-(4-fluorophenethyl)piperidin-4-yl]-6-(N-isopropylcarbamoylmethyl)indole], for which the melting point was 146 to 148 °C. The Ki at serotonin 1A receptor turned out to be 3.74 nM. Moreover, the Ki on serotonin 2 receptor was 3.12 nM.

`O=C(CCl)NCc1ccc2ccn(C3CCN(CCc4ccc(F)cc4)CC3)c2c1` [Example 373, 1-[1-(4-fluorophenethyl)piperidin-4-yl]-6-chloroacetamidomethylindole] came in with a melting point of 143 to 144 °C. The Ki on serotonin 1A receptor was 0.24 nM. Further, the Ki at serotonin 2 receptor was 1.77 nM.

As for `CC(=O)NCc1ccc2ccn(C3CCN(CCc4ccc(Br)cc4)CC3)c2c1` [Example 389, 1-[1-(4-bromophenethyl)piperidin-4-yl]-6-acetamidomethylindole], the melting point fell in the range of 140 to 141 °C. Further, at serotonin 1A receptor, the Ki worked out at 0.53 nM. Moreover, the Ki on serotonin 2 receptor is 15.5 nM.

For the compound `CC(=O)NCc1ccc2ccn(C3CCN(CCCCc4ccc(F)cc4)CC3)c2c1` [Example 356, 1-{1-[4-(4-fluorophenyl)butyl]-piperidin-4-yl}-6-acetamidomethylindole], the melting point lay within 59 to 60 °C. At serotonin 1A receptor, the Ki came to 1.52 nM. Further, the Ki on serotonin 2 receptor is more than 20 nM.

Turning to `COC(=O)NCc1ccc2ccn(C3CCN(CCc4ccc(F)cc4)CC3)c2c1` [Example 384, 1-[1-(4-fluorophenethyl)piperidin-4-yl]-6-methoxycarbonylaminomethylindole], the melting point lay in the range of 117 to 118 °C. The Ki at serotonin 1A receptor was 0.13 nM. Also, at serotonin 2 receptor, the Ki came to 0.25 nM.
